Results published in publication PMC11010885, “Functional Analysis and Tissue-Specific Expression of Calcitonin and CGRP with RAMP-Modulated Receptors CTR and CLR in Chickens” (Animals : an Open Access Journal from MDPI, 2024).
Entries after “also recorded” stand apart in the source; their conditions may differ.

What was measured:
Assay type in all cases: cell-based
chicken CTR + RAMP3 = test: MAPK/ERK pGL4-SRE-luciferase reporter assay, CTR + RAMP3 in CHO cells; details: 10^−12 M to 10^−6 M, 6 h, mean ± SEM, n = 3, read-out: EC50, MAPK/ERK signaling pathway
Method: (§1) Chinese hamster ovary (CHO) cells were cultured in Dulbecco’s modified Eagle’s medium (DMEM) supplemented with 10% (vol/vol) fetal bovine serum (HyClone, Logan, UT, USA), 100 U/mL penicillin G and 100 μg/mL streptomycin. The cells were maintained in a 90 mm culture dish (Nunc, Rochester, NY, USA) and incubated at 37 °C with 5% CO2. To investigate the signaling pathways associated with each receptor in CHO cells, three different reporter systems (pGL3-CRE-luciferase, pGL4-SRE-luciferase, and pGL3-NFAT-RE-luciferase) were utilized to monitor intracellular cAMP/PKA and MAPK/ERK signaling pathways and calcium mobilization of the activated receptors, respectively.
(§2) Prior to the transfection procedure, the cells were initially cultured in 6-well plates (Nunc, Rochester, NY, USA), maintaining a seeding density of approximately 300,000 cells per well. Upon achieving approximately 70% confluence, the cells underwent a co-transfection process. […] The fluorescence activity of the luciferase in each treatment group was measured using a multimode microplate reader (TriStar LB941, Berthold Technologies, Bad Wildbad, Germany). Finally, the fluorescence activity of each treatment group was expressed as a relative increase ratio compared to the control group.

[1] = system: chicken CTR in the absence or presence of RAMPs; test: cAMP/PKA pGL3-CRE-luciferase reporter assay, CTR without and with RAMPs compared; details: CHO cells, pGL3-CRE-luciferase
Method: as §1
(§3) Prior to the transfection procedure, the cells were initially cultured in 6-well plates (Nunc, Rochester, NY, USA), maintaining a seeding density of approximately 300,000 cells per well. Upon achieving approximately 70% confluence, the cells underwent a co-transfection process. This procedure entailed the introduction of 700 ng of various luciferase reporter constructs (namely, pGL3-CRE-luciferase, pGL4-SRE-luciferase, or pGL3-NFAT-RE-luciferase) combined with 200 ng of a specific receptor plasmid (CTR or CLR) and 1000 ng of either RAMP1, RAMP2, RAMP3 expression plasmids, or alternatively, the empty pcDNA3.1 (+) vector. A volume of 5.7 μL of PEI MAX was used in 200 μL of buffer following the manufacturer’s protocol. After 24 h of incubation, the transfected CHO cells were subcultured in 96-well plates and passaged for an additional 24 h before peptide treatment. Then, the medium from the 96-well plates was removed, and the cells were treated with chicken CT/CGRP-containing medium (or untreated medium as a control) at concentrations ranging from 10^−12 M to 10^−6 M for 6 h. […] The fluorescence activity of the luciferase in each treatment group was measured using a multimode microplate reader (TriStar LB941, Berthold Technologies, Bad Wildbad, Germany). Finally, the fluorescence activity of each treatment group was expressed as a relative increase ratio compared to the control group.

chicken CTR + RAMP2 [2] = test: Calcium pGL3-NFAT-RE-luciferase reporter assay, CTR + RAMP2 in CHO cells
Method: as §1, §3

chicken CTR + RAMP1 [3] = test: Calcium pGL3-NFAT-RE-luciferase reporter assay, CTR + RAMP1 in CHO cells; details: 10^−12 M to 10^−6 M, 6 h, mean ± SEM, n = 3, read-out: EC50, calcium signaling pathway
Method: as §1, §2

chicken CLR + RAMP2 [4] = test: Calcium pGL3-NFAT-RE-luciferase reporter assay, CLR + RAMP2 in CHO cells
Method: as §1, §3

chicken CLR + RAMP2 [5] = test: MAPK/ERK pGL4-SRE-luciferase reporter assay, CLR + RAMP2 in CHO cells; details: 10^−12 M to 10^−6 M, 6 h, mean ± SEM, n = 3, read-out: EC50, MAPK/ERK signaling pathway
Method: as §1, §2

chicken CTR + RAMP1 [6] = test: cAMP/PKA pGL3-CRE-luciferase reporter assay, CTR + RAMP1 in CHO cells; details: 10^−12 M to 10^−6 M, 6 h, mean ± SEM, n = 3, read-out: EC50, cAMP/PKA signaling pathway
Method: as §1, §2

chicken CLR + RAMP3 [7] = test: cAMP/PKA pGL3-CRE-luciferase reporter assay, CLR + RAMP3 in CHO cells; details: 10^−12 M to 10^−6 M, 6 h, mean ± SEM, n = 3, read-out: EC50, cAMP/PKA signaling pathway
Method: as §1, §2

chicken CTR + RAMP2 [8] = test: cAMP/PKA pGL3-CRE-luciferase reporter assay, CTR + RAMP2 in CHO cells; details: 10^−12 M to 10^−6 M, 6 h, mean ± SEM, n = 3, read-out: EC50, cAMP/PKA signaling pathway
Method: as §1, §2

chicken CTR [9] = test: cAMP/PKA pGL3-CRE-luciferase reporter assay, CTR + pcDNA in CHO cells
Method: as §1
Prior to the transfection procedure, the cells were initially cultured in 6-well plates (Nunc, Rochester, NY, USA), maintaining a seeding density of approximately 300,000 cells per well. Upon achieving approximately 70% confluence, the cells underwent a co-transfection process. This procedure entailed the introduction of 700 ng of various luciferase reporter constructs (namely, pGL3-CRE-luciferase, pGL4-SRE-luciferase, or pGL3-NFAT-RE-luciferase) combined with 200 ng of a specific receptor plasmid (CTR or CLR) and 1000 ng of either RAMP1, RAMP2, RAMP3 expression plasmids, or alternatively, the empty pcDNA3.1 (+) vector. A volume of 5.7 μL of PEI MAX was used in 200 μL of buffer following the manufacturer’s protocol. After 24 h of incubation, the transfected CHO cells were subcultured in 96-well plates and passaged for an additional 24 h before peptide treatment. Then, the medium from the 96-well plates was removed, and the cells were treated with chicken CT/CGRP-containing medium (or untreated medium as a control) at concentrations ranging from 10^−12 M to 10^−6 M for 6 h. Subsequently, the cells were harvested for luciferase assays by lysing them in 1 × passive lysis buffer. To measure the luciferase activity of the cell lysate, 40 μL of luciferase assay reagent (Promega, Madison, WI, USA) was mixed with the cell lysate following the manufacturer’s instructions. The fluorescence activity of the luciferase in each treatment group was measured using a multimode microplate reader (TriStar LB941, Berthold Technologies, Bad Wildbad, Germany). Finally, the fluorescence activity of each treatment group was expressed as a relative increase ratio compared to the control group.

chicken CTR [10] = test: Calcium pGL3-NFAT-RE-luciferase reporter assay, CTR + pcDNA in CHO cells; details: 10^−12 M to 10^−6 M, 6 h, mean ± SEM, n = 3, read-out: EC50, calcium signaling pathway
Method: as §1, §2

chicken CLR + RAMP1 = test: cAMP/PKA pGL3-CRE-luciferase reporter assay, CLR + RAMP1 in CHO cells; details: CLR + RAMP1, CHO cells, pGL3-CRE-luciferase, 10^−12 M to 10^−6 M, 6 h; mean ± SEM, n = 3; read-out: EC50, cAMP/PKA signaling pathway
Method: as §1, §3

chicken CLR + RAMP3 [11] = test: MAPK/ERK pGL4-SRE-luciferase reporter assay, CLR + RAMP3 in CHO cells; details: 10^−12 M to 10^−6 M, 6 h, mean ± SEM, n = 3, read-out: EC50, MAPK/ERK signaling pathway
Method: as §1, §2

chicken CTR + RAMPs = test: Western blot CREB phosphorylation, CTR + RAMPs in CHO cells; details: 10 nM, 10 min, n = 3
Method: To assess whether the activation of chicken CTR and CLR, along with the presence of RAMPs, can augment the phosphorylation levels of cAMP response element-binding protein (CREB), 200 ng of CTR or CLR expression plasmids were combined with 1000 ng of chicken RAMPs or an empty pcDNA3.1 (+) vector in a 100 μL buffer. The resulting mixture was then transfected into CHO cells in a 12-well plate (Nunc, Rochester, NY, USA) using 3.6 μL of PEI MAX transfection reagent. After a 24 h incubation period, the cells were exposed to chicken CT (10 nM) or CGRP (10 nM) for 10 min. Subsequently, the culture medium was removed, and the cells were lysed according to the manufacturer’s instructions. Western blot analysis was performed to quantify the levels of CREB and phosphorylated CREB (p-CREB). The optical densities were analyzed and normalized using the software, ImageJ 1.52a (National Institutes of Health, Bethesda, MD, USA). The relative expression of p-CREB/CREB was determined by calculating the ratio of the optical density to that of the control without peptide treatment (0 min).

For calcitonin [CT], the EC50 (chicken CTR + RAMP3) was 0.38 ± 0.13 nM, the “effect of RAMP co-expression on sensitivity of CTR” value [1] was “does not markedly influence the sensitivity of chicken CTR for CT; also recorded: a slight decrease in sensitivity towards CT” and the EC50 (chicken CTR + RAMP2 [2]; CTR + RAMP2, CHO cells, pGL3-NFAT-RE-luciferase, 10^−12 M to 10^−6 M, 6 h, mean ± SEM, n = 3, read-out: EC50, calcium signaling pathway) was 2.5 ± 1.81 nM. The “elevation in luciferase activity, calcium signaling” value (chicken CTR + RAMP2 [2]; CTR + RAMP2, pGL3-NFAT-RE-luciferase, CHO cells) was “modest elevation in luciferase activity”, the EC50 (chicken CTR + RAMP1 [3]) was > 100 nM and the EC50 (chicken CLR + RAMP2 [4]; CLR + RAMP2, CHO cells, pGL3-NFAT-RE-luciferase, 10^−12 M to 10^−6 M, 6 h, mean ± SEM, n = 3, read-out: EC50, calcium signaling pathway) was 1.52 ± 1.32 nM. For the same substance, the “elevation in luciferase activity, calcium signaling” value (chicken CLR + RAMP2 [4]; CLR + RAMP2, pGL3-NFAT-RE-luciferase, CHO cells) was “modest elevation in luciferase activity”, the EC50 (chicken CLR + RAMP2 [5]) was 0.38 ± 0.09 nM and the EC50 (chicken CTR + RAMP1 [6]) was 0.77 ± 0.07 nM. The EC50 (chicken CLR + RAMP3 [7]) was 1.27 ± 0.83 nM, the EC50 (chicken CTR + RAMP2 [8]) was 0.67 ± 0.1 nM and the EC50 (chicken CTR [9]; CTR + pcDNA, CHO cells, pGL3-CRE-luciferase, 10^−12 M to 10^−6 M, 6 h, mean ± SEM, n = 3, read-out: EC50, cAMP/PKA signaling pathway) was 0.15 ± 0.04 nM. For the same substance, the “activation (cAMP production), in words” value (chicken CTR [9]; independent CTR) was “strongly activates”, the EC50 (chicken CTR [10]) was 61.1 ± 8.55 nM and the EC50 (chicken CLR + RAMP1) was 3.3 ± 0.96 nM. For the same substance, the EC50 (chicken CLR + RAMP3 [11]) was 1 ± 0.45 nM and the “CREB phosphorylation (p-CREB/CREB vs. control, 0 min)” value (chicken CTR + RAMPs) was “significantly increased the CREB phosphorylation”.
